± gives the expanded uncertainty stated by the source.
How the values were obtained:
[1] = 101.33 kPa, Liquid; for viscosity: Capillary tube (Ostwald / Ubbelohde) method; for mass density: Vibrating tube method
[2] = xn = mol fraction of the nth substance listed; settings: 100 kPa, Liquid, x1 = 1; for viscosity: Capillary tube (Ostwald / Ubbelohde) method; for mass density: Vibrating tube method

CCCCn1cc[n+](C)c1.N#CN=C=[N-] [1-butyl-3-methylimidazolium dicyanamide]
viscosity ([1]; 273.15 K): 95.68 ± 2.4 mPa·s | mass density ([1]; 273.15 K): 1075.2 ± 8.6 kg/m3 | viscosity ([1]; 278.15 K): 71.85 ± 1.7 mPa·s | mass density ([1]; 278.15 K): 1072.13 ± 8.6 kg/m3 | viscosity ([1]; 283.15 K): 55.27 ± 1.2 mPa·s | mass density ([1]; 283.15 K): 1068.94 ± 8.6 kg/m3 | viscosity ([1]; 288.15 K): 43.57 ± 0.99 mPa·s | mass density ([1]; 288.15 K): 1065.72 ± 8.6 kg/m3 | viscosity ([1]; 293.15 K): 35.04 ± 0.8 mPa·s | mass density ([1]; 293.15 K): 1062.52 ± 8.5 kg/m3 | viscosity ([1]; 298.15 K): 28.5 ± 0.65 mPa·s | mass density ([1]; 298.15 K): 1059.33 ± 8.5 kg/m3 | viscosity ([1]; 303.15 K): 23.52 ± 0.53 mPa·s | mass density ([1]; 303.15 K): 1056.15 ± 8.5 kg/m3 | viscosity ([1]; 308.15 K): 19.87 ± 0.45 mPa·s | mass density ([1]; 308.15 K): 1052.99 ± 8.5 kg/m3 | viscosity ([1]; 313.15 K): 16.95 ± 0.39 mPa·s | mass density ([1]; 313.15 K): 1049.85 ± 8.4 kg/m3 | viscosity ([1]; 318.15 K): 14.61 ± 0.33 mPa·s | mass density ([1]; 318.15 K): 1046.72 ± 8.4 kg/m3 | viscosity ([1]; 323.15 K): 12.65 ± 0.29 mPa·s | mass density ([1]; 323.15 K): 1043.61 ± 8.4 kg/m3 | mass density ([1]; 328.15 K): 1040.51 ± 8.4 kg/m3 | mass density ([1]; 333.15 K): 1037.43 ± 8.3 kg/m3

CCCCn1cc[n+](C)c1.N#CN=C=[N-] [1-butyl-3-methylimidazolium dicyanamide] + O=C1CCCO1
viscosity ([2]; 273.15 K): 95.68 ± 2.4 mPa·s | mass density ([2]; 273.15 K): 1075.2 ± 8.6 kg/m3 | viscosity ([2]; 283.15 K): 55.27 ± 1.2 mPa·s | mass density ([2]; 283.15 K): 1068.94 ± 8.6 kg/m3 | viscosity ([2]; 293.15 K): 35.04 ± 0.8 mPa·s | mass density ([2]; 293.15 K): 1062.52 ± 8.5 kg/m3 | viscosity ([2]; 298.15 K): 28.5 ± 0.65 mPa·s | mass density ([2]; 298.15 K): 1059.33 ± 8.5 kg/m3 | viscosity ([2]; 303.15 K): 23.52 ± 0.53 mPa·s | mass density ([2]; 303.15 K): 1056.15 ± 8.5 kg/m3 | viscosity ([2]; 313.15 K): 16.95 ± 0.39 mPa·s | mass density ([2]; 313.15 K): 1049.85 ± 8.4 kg/m3 | viscosity ([2]; 323.15 K): 12.65 ± 0.29 mPa·s | mass density ([2]; 323.15 K): 1043.61 ± 8.4 kg/m3

From the NIST ThermoML archive (doi:10.1016/j.jct.2016.02.014)
